Data as given in ChEMBL document CHEMBL5131506, “Exploration of 2-phenylquinoline-4-carboxamide linked benzene sulfonamide derivatives as isoform selective inhibitors of transmembrane human carbonic anhydrases” (Eur J Med Chem, 2022).
pKi: −log10 of the molar value.

Tests used:
Carbonic anhydrase 2 = Carbonic anhydrase 2 (Homo sapiens, UniProt P00918); assay: Inhibition of human recombinant carbonic anhydrase 2 assessed as inhibition constant incubated for 10 mins by phenol red dye based stopped-flow CO2 hydration assay
Carbonic anhydrase 1 = Carbonic anhydrase 1 (Homo sapiens, UniProt P00915); assay: Inhibition of human recombinant carbonic anhydrase 1 assessed as inhibition constant incubated for 10 mins by phenol red dye based stopped-flow CO2 hydration assay
Chain of Carbonic anhydrase 1 (P00915 whole entry): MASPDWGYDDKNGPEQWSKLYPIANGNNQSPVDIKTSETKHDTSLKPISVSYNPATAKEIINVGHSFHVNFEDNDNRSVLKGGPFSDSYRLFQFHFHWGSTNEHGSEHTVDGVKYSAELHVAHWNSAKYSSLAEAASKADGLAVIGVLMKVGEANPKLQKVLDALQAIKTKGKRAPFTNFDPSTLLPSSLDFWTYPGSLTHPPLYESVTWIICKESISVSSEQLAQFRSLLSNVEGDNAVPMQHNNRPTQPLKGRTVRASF

Carbonic anhydrase 12 = Carbonic anhydrase 12 (Homo sapiens, UniProt O43570); assay: Inhibition of human recombinant carbonic anhydrase 12 assessed as inhibition constant incubated for 10 mins by phenol red dye based stopped-flow CO2 hydration assay
Chain of Carbonic anhydrase 12 (O43570 whole entry): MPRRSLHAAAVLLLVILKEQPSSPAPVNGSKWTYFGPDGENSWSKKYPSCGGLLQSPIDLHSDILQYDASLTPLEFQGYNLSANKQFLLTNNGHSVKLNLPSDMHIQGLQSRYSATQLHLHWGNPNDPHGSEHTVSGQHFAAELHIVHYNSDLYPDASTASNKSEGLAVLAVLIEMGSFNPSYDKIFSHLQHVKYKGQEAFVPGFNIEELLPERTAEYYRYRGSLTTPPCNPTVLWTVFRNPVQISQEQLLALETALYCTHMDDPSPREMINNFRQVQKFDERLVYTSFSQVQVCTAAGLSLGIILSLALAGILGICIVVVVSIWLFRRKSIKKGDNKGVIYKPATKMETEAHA

Carbonic anhydrase 9 = Carbonic anhydrase 9 (Homo sapiens, UniProt Q16790); assay: Inhibition of human recombinant carbonic anhydrase 9 assessed as inhibition constant incubated for 10 mins by phenol red dye based stopped-flow CO2 hydration assay
Carbonic anhydrase 4 = Carbonic anhydrase 4 (Homo sapiens, UniProt P22748); assay: Inhibition of human recombinant carbonic anhydrase 4 assessed as inhibition constant incubated for 10 mins by phenol red dye based stopped-flow CO2 hydration assay
Chain of Carbonic anhydrase 4 (P22748 whole entry): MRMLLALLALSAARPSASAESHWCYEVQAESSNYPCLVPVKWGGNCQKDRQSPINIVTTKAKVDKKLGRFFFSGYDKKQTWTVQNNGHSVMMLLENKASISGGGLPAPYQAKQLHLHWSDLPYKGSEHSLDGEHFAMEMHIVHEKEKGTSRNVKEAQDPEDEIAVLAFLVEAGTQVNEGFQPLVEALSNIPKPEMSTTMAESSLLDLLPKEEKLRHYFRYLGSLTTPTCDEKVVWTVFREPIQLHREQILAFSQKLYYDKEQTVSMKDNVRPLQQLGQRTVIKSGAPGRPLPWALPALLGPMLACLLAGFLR

Row | SMILES | pKi (Carbonic anhydrase 2) | pKi (Carbonic anhydrase 1) | pKi (Carbonic anhydrase 12) | pKi (Carbonic anhydrase 9) | pKi (Carbonic anhydrase 4)
1 | NS(=O)(=O)c1cc(C(=O)CSc2nc3c(cnc4ccccc43)[nH]2)ccc1Cl | 10.52 | 8.89 | 10.00 |  | 
2 | O=C(/C=C/c1sc(N2CCOCC2)nc1-c1ccc([N+](=O)[O-])cc1)Nc1ccc(Br)cc1 | 8.03 |  | 8.06 | 7.26 | 
3 | NS(=O)(=O)c1ccc(NC(=O)c2cc(-c3cccc(Cl)c3)nc3ccccc23)cc1 | 6.85 | 6.08 | 7.14 | 7.01 | 
4 | NS(=O)(=O)c1ccc(CCNC(=O)c2cc(-c3ccccc3)nc3ccc(Cl)cc23)cc1 | 7.37 | 5.72 | 8.17 | 7.32 | 
5 | COc1ccc2nc(-c3ccc(Cl)cc3Cl)cc(C(=O)NCCc3ccc(S(N)(=O)=O)cc3)c2c1 | 6.17 | 5.20 | 6.36 | 7.13 | 
6 | COc1ccc2nc(-c3ccc(OC)c(OC)c3)cc(C(=O)NCCc3ccc(S(N)(=O)=O)cc3)c2c1 | 6.23 | 5.26 | 6.66 | 7.15 | 
7 | COc1ccc2nc(-c3ccccc3OC)cc(C(=O)NCCc3ccc(S(N)(=O)=O)cc3)c2c1 | 6.42 | 6.04 | 6.07 | 7.17 | 
8 | COc1ccc2nc(-c3ccccc3)cc(C(=O)Nc3ccc(S(N)(=O)=O)cc3)c2c1 | 7.04 | 6.27 | 7.25 | 7.45 | 
9 | COc1ccc(-c2cc(C(=O)Nc3cccc(S(N)(=O)=O)c3)c3ccccc3n2)cc1OC | 6.41 | 6.05 | 7.12 | 7.11 | 
10 | NS(=O)(=O)c1cccc(NC(=O)c2cc(-c3ccccc3)nc3ccc(Cl)cc23)c1 | 6.76 | 5.18 | 7.15 | 6.48 | 
11 | COc1ccc(-c2cc(C(=O)Nc3ccc(S(N)(=O)=O)cc3)c3cc(Cl)ccc3n2)cc1OC | 6.52 | 6.10 | 6.67 | 6.51 | 
12 | COc1ccc2nc(-c3ccc(Cl)cc3Cl)cc(C(=O)Nc3cccc(S(N)(=O)=O)c3)c2c1 | 7.21 | 6.05 | 7.19 | 7.03 | 
13 | COc1ccc2nc(-c3ccc(OC)c(OC)c3)cc(C(=O)Nc3ccc(S(N)(=O)=O)cc3)c2c1 | 7.58 | 6.38 | 7.12 | 8.04 | 
14 | Cc1ccc(-c2cc(C(=O)Nc3cccc(S(N)(=O)=O)c3)c3cc(Cl)ccc3n2)cc1 | 6.53 | 5.40 | 6.12 | 6.61 | 
15 | COc1ccc2nc(-c3ccccc3C)cc(C(=O)Nc3ccc(S(N)(=O)=O)cc3)c2c1 | 7.55 | 6.26 | 7.33 | 7.67 | 
16 | NS(=O)(=O)c1ccc(NC(=O)Cn2cc(/C=C/C(=O)c3cccc(C(F)(F)F)c3)c3ccccc32)cc1 | 8.64 |  |  | 7.51 | 
17 | NS(=O)(=O)c1cccc(NC(=O)c2cc(-c3ccccc3)nc3ccccc23)c1 | 6.53 | 6.01 | 8.02 | 7.17 | 
18 | COc1ccc(-c2cc(C(=O)Nc3cccc(S(N)(=O)=O)c3)c3cc(Cl)ccc3n2)cc1OC | 6.60 | 6.08 | 6.37 | 6.61 | 

Row | SMILES | pKi (Carbonic anhydrase 2) | pKi (Carbonic anhydrase 1) | pKi (Carbonic anhydrase 12) | pKi (Carbonic anhydrase 9) | pKi (Carbonic anhydrase 4)
19 | NS(=O)(=O)c1cccc(NC(=O)c2cc(-c3ccc4c(c3)OCO4)nc3ccccc23)c1 | 6.32 | 5.84 | 7.05 | 7.18 | 
20 | COc1ccc(-c2cc(C(=O)NCCc3ccc(S(N)(=O)=O)cc3)c3ccccc3n2)cc1OC | 7.45 | 7.04 | 7.05 | 8.01 | 
21 | NS(=O)(=O)c1cccc(NC(=O)c2cc(-c3cccc(Br)c3)nc3ccccc23)c1 | 6.81 | 6.07 | 6.47 | 7.04 | 
22 | NS(=O)(=O)c1cccc(NC(=O)c2cc(-c3cccc(C(F)(F)F)c3)nc3ccccc23)c1 | 7.06 | 5.42 | 6.44 | 7.19 | 
23 | NS(=O)(=O)c1ccc(CCNC(=O)c2cc(-c3ccc4c(c3)OCO4)nc3ccccc23)cc1 | 7.74 | 5.44 | 6.26 | 7.64 | 
24 | NS(=O)(=O)c1ccc(CCNC(=O)c2cc(-c3ccccc3)nc3ccc(Br)cc23)cc1 | 6.06 | 5.20 | 6.12 | 7.23 | 
25 | NS(=O)(=O)c1ccc(NC(=O)c2cc(-c3cccc(C(F)(F)F)c3)nc3ccccc23)cc1 | 6.58 | 6.18 | 6.77 | 6.38 | 
26 | NS(=O)(=O)c1ccc(NC(=O)c2cc(-c3ccc4c(c3)OCO4)nc3ccccc23)cc1 | 8.15 | 6.59 | 7.14 | 8.19 | 
27 | COc1ccc(-c2cc(C(=O)Nc3ccc(S(N)(=O)=O)cc3)c3ccccc3n2)c(OC)c1 | 6.22 | 5.27 | 6.58 | 7.03 | 
28 | NS(=O)(=O)c1ccc(CCNC(=O)c2cc(-c3cccc(Br)c3)nc3ccccc23)cc1 | 8.02 | 6.01 | 7.51 | 7.41 | 
29 | COc1ccc2nc(-c3ccccc3OC)cc(C(=O)Nc3ccc(S(N)(=O)=O)cc3)c2c1 | 7.35 | 6.55 | 8.06 | 7.43 | 
30 | CCN(C1CC(C)S(=O)(=O)c2sc(S(N)(=O)=O)cc21)S(=O)(=O)c1cccc2cccnc12 (stereo not drawn) | 8.30 |  |  |  | 8.00
31 | NS(=O)(=O)c1cccc(NC(=O)c2cc(-c3cccc(Cl)c3)nc3ccc(Cl)cc23)c1 | 6.59 | 6.07 | 6.28 | 6.46 | 
32 | NS(=O)(=O)c1ccc(CCNC(=O)c2cc(-c3cccc(C(F)(F)F)c3)nc3ccccc23)cc1 | 7.04 | 5.74 | 8.16 | 7.13 | 
33 | COc1ccc2nc(-c3ccccc3)cc(C(=O)NCCc3ccc(S(N)(=O)=O)cc3)c2c1 | 6.31 | 6.03 | 6.41 | 7.12 | 
34 | COc1ccc2nc(-c3ccc(OC)c(OC)c3)cc(C(=O)Nc3cccc(S(N)(=O)=O)c3)c2c1 | 7.01 | 6.18 | 6.37 | 7.29 | 
35 | NS(=O)(=O)c1ccc(NC(=O)c2cc(-c3ccccc3)nc3ccccc23)cc1 | 7.26 | 6.27 | 6.89 | 7.15 | 
36 | COc1ccc(-c2cc(C(=O)NCCc3ccc(S(N)(=O)=O)cc3)c3cc(Cl)ccc3n2)cc1OC | 6.73 | 6.12 | 6.52 | 7.04 | 
